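Values below derive from 48-hour exposures of cells grown in 96-well plates, with endpoints linearly interpolated between the two concentrations bracketing the appropriate inhibition level. Abbreviation: GI50, concentration required for 50% inhibition of growth.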 Calls of active or inactive are those of the source. Cut-off read from the data, not from the text of the source: active = GI50 up to about 1.1 µM and inactive = higher.

Among the test systems are COLO 205; HCT-15; HOP-62; HT-29; Hs-578T; IGROV-1; M14; MDA-N; RXF 393; SF-268; SK-MEL-2; SK-MEL-5; SK-OV-3; SR; TK-10; CAKI-1; OVCAR-8.
Common to all, as to test: NCI-60 cell line screen, 48 h

Take `Cc1ccc(-c2cn3c(nc4ccccc43)c(/C=C/c3ccco3)n2)cc1`: the GI50 in the assay on COLO 205 was 61.7 µM (inactive); in the assay with HCT-15, > 100 µM; in the assay with HOP-62 it was > 100 µM (inactive); in the assay on HT-29, > 100 µM (inactive); in the assay with Hs-578T, 31.9 µM (inactive); in the assay on IGROV-1, 62.1 µM (inactive). For the same compound, the GI50 was > 100 µM (inactive) with M14; 42.1 µM (inactive) in the assay on MDA-N; > 100 µM (inactive) in the assay with RXF 393; 59.7 µM (inactive) in the assay on SF-268; 22.1 µM (inactive) with SK-MEL-2; 34.8 µM (inactive) with SK-MEL-5. Besides, the GI50 was > 100 µM (inactive) in the assay on SK-OV-3, 19.6 µM (inactive) in the assay with SR and > 100 µM (inactive) in the assay on TK-10.
For `CCOP(=O)(OCC)c1ccc(=O)[nH]c1-c1cccs1`, the GI50 is > 100 µM (inactive) in the assay with CAKI-1; > 100 µM (inactive) with COLO 205; > 100 µM with HCT-15; > 100 µM (inactive) with HOP-62; > 100 µM (inactive) in the assay on HT-29; > 100 µM (inactive) with Hs-578T. The GI50 in the assay with IGROV-1, with M14, with MDA-N, in the assay on OVCAR-8, in the assay with RXF 393 and in the assay with SF-268 was > 100 µM (inactive) in each case. Further, the GI50 in the assay with SK-MEL-2, in the assay with SK-MEL-5, in the assay on SK-OV-3, with SR and in the assay with TK-10 was > 100 µM (inactive) each time.
For `CCCCNS(=O)(=O)c1n[nH]c(=O)[nH]c1=O`, the GI50 was > 100 µM (inactive) in the assay with CAKI-1; > 100 µM (inactive) with COLO 205; > 100 µM in the assay on HCT-15; 23.5 µM (inactive) in the assay on HOP-62; > 100 µM (inactive) in the assay on HT-29; > 100 µM (inactive) in the assay with Hs-578T. Moreover, the GI50 in the assay on IGROV-1, in the assay on M14, with MDA-N, in the assay on OVCAR-8, in the assay with RXF 393 and with SF-268 was > 100 µM (inactive) throughout. Further, the GI50 in the assay on SK-MEL-2 is > 100 µM (inactive); in the assay with SK-MEL-5, > 100 µM (inactive); in the assay on SK-OV-3 it was 17.6 µM (inactive); in the assay on SR, > 100 µM (inactive).
Consider `Cc1ccc(/C=N\NC(=O)c2ccncc2)s1`, for which the GI50 in the assay with CAKI-1 was > 100 µM (inactive); in the assay on COLO 205 it was > 100 µM (inactive); in the assay with HCT-15, > 100 µM; in the assay with HOP-62, > 100 µM (inactive); in the assay on HT-29 it was > 100 µM (inactive); in the assay on Hs-578T it was > 100 µM (inactive). For the same compound, the GI50 with IGROV-1, in the assay on M14, in the assay with MDA-N, in the assay with OVCAR-8, in the assay on RXF 393 and with SF-268 was > 100 µM (inactive) in each case. Moreover, the GI50 in the assay on SK-MEL-2, with SK-MEL-5, with SK-OV-3, in the assay on SR and with TK-10 was > 100 µM (inactive) throughout.
In the case of `CCOC(=O)NC(Nc1ccc(S(=O)(=O)Nc2nc(C)cc(C)n2)cc1)(C(=O)OCC)C(F)(F)F` (centres undefined), the GI50 in the assay on CAKI-1 is > 100 µM (inactive); in the assay on COLO 205, > 100 µM (inactive); with HCT-15, > 100 µM; in the assay on HOP-62, > 100 µM (inactive); with HT-29, > 100 µM (inactive); with Hs-578T, > 100 µM (inactive). The GI50 with IGROV-1, in the assay with M14, with MDA-N, in the assay on OVCAR-8, with RXF 393 and with SF-268 was > 100 µM (inactive) each time. Also, the GI50 with SK-MEL-2 was > 100 µM (inactive); in the assay with SK-MEL-5 it was > 100 µM (inactive); in the assay with SK-OV-3, > 100 µM (inactive); with SR, 5.33 µM (inactive); with TK-10, 72.9 µM (inactive).
Take `COc1ccc(CN/C=N/C(C#N)=C(\N)C#N)cc1OC`: the GI50 with CAKI-1 is > 100 µM (inactive); in the assay on COLO 205, > 100 µM (inactive); in the assay on HCT-15, > 100 µM; with HOP-62 it was > 100 µM (inactive); in the assay with HT-29 it was > 100 µM (inactive); with Hs-578T it was > 100 µM (inactive). In addition, the GI50 in the assay with IGROV-1, in the assay with M14, in the assay with MDA-N, in the assay with OVCAR-8, with SF-268 and in the assay on SK-MEL-2 was > 100 µM (inactive) in each case. In addition, the GI50 in the assay on SK-MEL-5, with SK-OV-3, in the assay with SR and in the assay on TK-10 was > 100 µM (inactive) each time.
`O=C1CSC(=S)N1c1ccco1`: the GI50 is > 100 µM (inactive) in the assay on CAKI-1; 79.4 µM (inactive) in the assay on COLO 205; 22 µM in the assay on HCT-15; > 100 µM (inactive) in the assay with HOP-62; > 100 µM (inactive) in the assay with HT-29; > 100 µM (inactive) with Hs-578T. The GI50 in the assay on IGROV-1 is > 100 µM (inactive); in the assay with M14 it was 44.2 µM (inactive); in the assay with MDA-N, 19.8 µM (inactive); in the assay with OVCAR-8, 56.5 µM (inactive); with RXF 393 it was > 100 µM (inactive); with SF-268, > 100 µM (inactive). In addition, the GI50 in the assay with SK-MEL-2 was 46.7 µM (inactive); with SK-MEL-5, 43 µM (inactive); in the assay with SK-OV-3, > 100 µM (inactive); in the assay on SR it was > 100 µM (inactive); in the assay on TK-10 it was > 100 µM (inactive).
Turning to `COc1cccc(/N=N/C(=N\NC(=O)c2ccc(C)cc2)c2ccc(N(CCC#N)CCC#N)cc2C)c1`, the GI50 was > 100 µM (inactive) in the assay on CAKI-1; > 100 µM (inactive) in the assay with COLO 205; > 100 µM with HCT-15; 72.8 µM (inactive) with HOP-62; > 100 µM (inactive) in the assay with HT-29; 54.1 µM (inactive) in the assay with Hs-578T. Also, the GI50 in the assay on IGROV-1 is > 100 µM (inactive); in the assay on M14, > 100 µM (inactive); in the assay with MDA-N, > 100 µM (inactive); in the assay on OVCAR-8, 35.1 µM (inactive); in the assay with RXF 393 it was 74.5 µM (inactive); in the assay with SF-268 it was > 100 µM (inactive). Further, the GI50 with SK-MEL-2 is > 100 µM (inactive); with SK-MEL-5, > 100 µM (inactive); in the assay with SK-OV-3, 48.2 µM (inactive); in the assay on SR, 61.1 µM (inactive); in the assay with TK-10, > 100 µM (inactive).
`N=C(N)SCCON1C(=O)c2ccccc2C1=O`: the GI50 with CAKI-1 was > 100 µM (inactive); in the assay on COLO 205, > 100 µM (inactive); in the assay with HCT-15, > 100 µM; in the assay with HOP-62, > 100 µM (inactive); in the assay on HT-29, > 100 µM (inactive); in the assay with Hs-578T, > 100 µM (inactive). The GI50 with IGROV-1, in the assay with M14, in the assay on MDA-N, in the assay on OVCAR-8, in the assay with RXF 393 and in the assay on SF-268 was > 100 µM (inactive) in each case. For the same compound, the GI50 in the assay with SK-MEL-2, in the assay on SK-MEL-5, in the assay with SK-OV-3, with SR and with TK-10 was > 100 µM (inactive) in each case.
On to `Cc1ccc2nc(Cl)c(/C=N/N3C(=O)/C(=C/Cc4ccco4)N=C3c3ccccc3)cc2c1`, for which the GI50 with CAKI-1 is 5.04 µM (inactive); in the assay on COLO 205, 51.5 µM (inactive); in the assay on HCT-15, 27.7 µM; in the assay on HOP-62 it was 62.2 µM (inactive); in the assay with HT-29, 32.7 µM (inactive); with Hs-578T it was 34.2 µM (inactive). In addition, the GI50 is 23.1 µM (inactive) with IGROV-1; 27.7 µM (inactive) with M14; 16.9 µM (inactive) in the assay on MDA-N; 34.4 µM (inactive) with OVCAR-8; 2.54 µM (inactive) in the assay with RXF 393; 31.3 µM (inactive) in the assay on SF-268. Besides, the GI50 in the assay on SK-MEL-2 is 56.6 µM (inactive); with SK-MEL-5 it was 56.4 µM (inactive); with SK-OV-3 it was > 100 µM (inactive); with SR, > 69.3 µM (inactive); with TK-10, 18.4 µM (inactive).
For `CC1=NN=C(N)N/C1=C\C(Sc1ccc(Cl)cc1)c1ccc(Cl)cc1Cl` (centres undefined), the GI50 is 25.4 µM (inactive) with CAKI-1; 18.9 µM (inactive) in the assay with COLO 205; 10.9 µM with HCT-15; 23.8 µM (inactive) in the assay with HOP-62; 3.59 µM (inactive) with HT-29; 17.5 µM (inactive) with Hs-578T. Besides, the GI50 in the assay with IGROV-1 was 8.61 µM (inactive); with M14, 13.6 µM (inactive); in the assay on MDA-N it was 19.7 µM (inactive); in the assay with OVCAR-8 it was 13.5 µM (inactive); in the assay on RXF 393, 16.3 µM (inactive); in the assay on SF-268 it was 12.6 µM (inactive). For the same compound, the GI50 with SK-MEL-2 is 16.4 µM (inactive); with SK-MEL-5, 14.8 µM (inactive); with SK-OV-3, 18.3 µM (inactive); in the assay on SR, > 100 µM (inactive); with TK-10, 17.5 µM (inactive).
`O=C(Nc1ccccc1)c1nn(-c2cc(S(=O)(=O)O)c([N+](=O)[O-])cc2Cl)[n+](-c2cc(S(=O)(=O)[O-])c([N+](=O)[O-])cc2Cl)n1`: the GI50 is > 100 µM (inactive) with CAKI-1; > 100 µM (inactive) with COLO 205; > 100 µM with HCT-15; > 100 µM (inactive) with HOP-62; > 100 µM (inactive) with HT-29; > 100 µM (inactive) with Hs-578T. Also, the GI50 in the assay with IGROV-1, with M14, in the assay on MDA-N, in the assay with RXF 393, in the assay on SF-268 and in the assay with SK-MEL-2 was > 100 µM (inactive) each time. For the same compound, the GI50 in the assay on SK-MEL-5, with SK-OV-3, in the assay on SR and in the assay with TK-10 was > 100 µM (inactive) each time.
